The test system of test [1] is FLT3-wildtype relapsed/refractory AML. The test is described as follows: Example 2: FLT3-wildtype relapsed/refractory AML patient; crenolanib besylate with salvage chemotherapy. The format is in vivo, human. How it is done:
A person was diagnosed with AML in 2016. […] Initially, the patient was treated with a standard cytarabine/anthracycline based chemotherapy regimen. […] To treat this patient's disease and overcome the rise in FLT3 ligand that has been documented to occur after successive rounds of chemotherapy, even in FLT3-wildtype patients, this patient was provided oral crenolanib besylate in combination with salvage chemotherapy for relapsed/refractory patients. […] The patient was treated with salvage chemotherapy, comprised of five days of fludarabine, five days of cytarabine, 3 days of idarubicin, and G-CSF, followed by 100 mg of crenolanib besylate three times daily starting on day 7 of treatment.
The study was designed to determine the safety of crenolanib when combined with standard salvage chemotherapy in patients with relapsed/refractory AML, patients only remained on study for 1-2 cycles of induction crenolanib combination therapy.

For test [2], the system named is AML with FLT3-ITD, FLT3-I836del, FLT3-N841I, FLT3-V491L, FLT3-V592A mutations. The test is described as follows: Example 7: newly diagnosed AML patient with multiple FLT3 mutations; crenolanib besylate with standard chemotherapy. The format is in vivo, human. How it is done: A person was diagnosed with AML in 2016. Their diagnostic bone marrow aspirate was sent for NGS of cancer associated genes. […] To treat this patient's disease and overcome the FLT3 mutations, this patient was provided oral crenolanib besylate in combination with standard chemotherapy on a clinical trial for newly diagnosed AML patients with activating FLT3 mutations. […] The patient was treated with induction chemotherapy, comprised of seven days of cytarabine and three days of idarubicin, followed by 100 mg of crenolanib besylate three times daily starting on day 10 of treatment.
In an effort to maintain remission, the patient was then administered four cycles of high dose cytarabine consolidation chemotherapy. In each cycle, the patient received cytarabine chemotherapy at standard doses, followed by oral crenolanib besylate at 100 mg three times daily starting 48 hours after the last dose of chemotherapy and continuing until 72 hours before the start of the next cycle of chemotherapy. Due to the aggressive nature of FLT3 mutated AML, the patient continued to receive single agent crenolanib besylate therapy at 100 mg three times daily for 21 months, known as maintenance.

With `CC1(COc2ccc3c(c2)ncn3-c2ccc3cccc(N4CCC(N)CC4)c3n2)COC1` [crenolanib, 4-Piperidinamine, 1-[2-[5-[(3-methyl-3-oxetanyl)methoxy]-1H-benzimidazol-1-yl]-8-quinolinyl]], the patient status result in test [1] (at last follow up, after a single cycle) is “remains alive and in remission”. The “mutations in BCOR, NRAS, and U2AF1” value in test [1] (day 32, bulk DNA sequencing methods) was “not detected”. The response result in test [1] (day 32, crenolanib combination therapy) is given as “complete morphological remission”; in test [2] (day 27, crenolanib combination therapy), “complete morphologic remission”. Besides, the bone marrow blasts result in test [1] (person, baseline 17%, day 32, fludarabine, cytarabine, idarubicin, G-CSF, then 100 mg crenolanib besylate three times daily from day 7) is “less than 5%”; in test [2] (person, baseline 95%, day 27, cytarabine 7 days + idarubicin 3 days, then 100 mg crenolanib besylate three times daily from day 10), 2%. Moreover, in test [2] (day 27), the “FLT3-ITD and FLT3-I836del by molecular testing” value is given as “could not find”.

The values are drawn from patent US11471451B2, “Uses of crenolanib” (Arog Pharmaceuticals, Inc., priority 2019, dated 2022).
